Where a name gives a salt, the structure may show the parent alone. Read-outs that look alike come from different tables or passages of the source.
Molecular target: T1, human SARM1(50-724) (Homo sapiens, UniProt Q6SZW1)
T1 construct: 40 nM human SARM1(50-724)
T1 sequence (Q6SZW1 50-724): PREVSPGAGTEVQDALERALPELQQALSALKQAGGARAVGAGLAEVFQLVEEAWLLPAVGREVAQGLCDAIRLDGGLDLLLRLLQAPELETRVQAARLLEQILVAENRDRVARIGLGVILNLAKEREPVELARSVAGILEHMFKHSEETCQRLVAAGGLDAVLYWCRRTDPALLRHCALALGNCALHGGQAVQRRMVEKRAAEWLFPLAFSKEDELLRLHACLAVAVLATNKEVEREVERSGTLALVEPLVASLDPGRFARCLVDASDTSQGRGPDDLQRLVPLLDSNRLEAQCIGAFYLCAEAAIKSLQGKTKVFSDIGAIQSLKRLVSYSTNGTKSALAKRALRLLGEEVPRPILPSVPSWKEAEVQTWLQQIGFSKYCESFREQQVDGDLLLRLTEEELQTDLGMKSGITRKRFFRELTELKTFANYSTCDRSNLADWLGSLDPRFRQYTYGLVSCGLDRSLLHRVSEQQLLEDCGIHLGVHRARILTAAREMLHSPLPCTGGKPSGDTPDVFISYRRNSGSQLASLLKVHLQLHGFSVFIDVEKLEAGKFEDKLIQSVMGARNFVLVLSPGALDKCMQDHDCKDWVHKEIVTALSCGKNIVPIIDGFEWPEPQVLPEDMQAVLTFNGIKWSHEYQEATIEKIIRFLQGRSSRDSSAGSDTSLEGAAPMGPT
Test: SARM1 biological assay: HPLC measurement of NAD and NAM peak areas
Assay type: biochemical
Description: Each reaction was run at a volume of 20 μL containing 50 μM compound (dissolved in DMSO; final concentration of DMSO is 1% v/v), 40 nM human SARM1(50-724), 0.3 mM NMN, 20 μM NAD, 1 mM TCEP, 25 mM HEPES pH 7.4, 10 mM KCl and 10 mM MgCl2. The reaction was incubated at room temperature for 60 minutes and quenched with 20 μL of 0.4% formic acid. The samples were run on Agilent HPLC 1260 Infinity II with Synergi 2.5 μM Fusion-RP 100 Å (100×3.0 mm) LC column from Phenomenex. Total run time for each sample was 4 minutes. The run was isocratic with 1.5% methanol in 40 mM ammonium acetate pH 6.0. Samples were run at a flow rate of 0.8 mL/min at 55° C. Peak areas of NAD and NAM were determined using OpenLAB CDS (Chem Station edition) software. For dose-response, the compound was diluted serially 1:3 in DMSO and added to the reaction starting at a final compound concentration of 100 μM in 1% DMSO.

Structure (SMILES)	IC50	IC50 (read-out: Average IC50, 40 nM human SARM1(50-724), 0.3 mM NMN, 20 μM NAD, 60 min at room temperature, dose-response 1:3 serial dilution from 100 μM)
CC(c1ccncc1)c1c[nH]c(C(=O)C(F)(F)F)n1 (racemic) [Example 22, 2,2,2-Trifluoro-1-(4-(pyridine-4-yl)ethyl)-1H-imidazol-2-yl)ethan-1-one hydrochloride]	< 1 µM	
FC(F)(F)[C@H]1CCO[C@H]1c1nc(Cc2ccncc2)c[nH]1 (relative stereo) [Example 27, (cis)-4-((2-(3-(trifluoromethyl)tetrahydrofuran-2-yl)-1H-imidazol-4-yl)methyl)pyridine]	10 to 100 µM	
FC1(F)CC1c1nc(Cc2ccncc2)c[nH]1 (single isomer, unassigned) [Example 5A]	< 1 µM	
FC1(F)CC1c1nc(Cc2ccncc2)c[nH]1 (single isomer, unassigned) [Example 5B]		< 1 µM
C[C@]1(c2nc(Cc3ccncc3)c[nH]2)CC1(F)F (single isomer, unassigned) [Example 10A]	< 1 µM	
C[C@@]1(c2nc(Cc3ccncc3)c[nH]2)CC1(F)F (single isomer, unassigned) [Example 10B]	< 1 µM	
FC1(F)CC[C@H](c2nc(Cc3ccncc3)c[nH]2)C1 (single isomer, unassigned) [Example 11A]	< 1 µM	
FC1(F)CC[C@@H](c2nc(Cc3ccncc3)c[nH]2)C1 (single isomer, unassigned) [Example 11B]	1 to 10 µM	
FC1(F)C[C@@H]1Cc1nc(Cc2ccncc2)c[nH]1 (single isomer, unassigned) [Example 21A]	< 1 µM	
FC1(F)C[C@H]1Cc1nc(Cc2ccncc2)c[nH]1 (single isomer, unassigned) [Example 21B]	< 1 µM	
C[C@H](c1ccncc1)c1c[nH]c(C(=O)C(F)(F)F)n1 (single isomer, unassigned) [Example 23A, hydrochloride]	< 1 µM	
C[C@@H](c1ccncc1)c1c[nH]c(C(=O)C(F)(F)F)n1 (single isomer, unassigned) [Example 23B, hydrochloride]	1 to 10 µM	
FC(F)(F)[C@H]1C[C@@H](c2nc(Cc3ccncc3)c[nH]2)C1 (single isomer, unassigned) [Example 31A, (cis)-4-((2-(3-(Trifluoromethyl)cyclobutyl)-1H-imidazol-4-yl)methyl)pyridine]	1 to 10 µM	
FC(F)(F)[C@H]1C[C@H](c2nc(Cc3ccncc3)c[nH]2)C1 (single isomer, unassigned) [Example 31B, (trans)-4-((2-(3-(Trifluoromethyl)cyclobutyl)-1H-imidazol-4-yl)methyl)pyridine]	1 to 10 µM	
ClC1(Cl)C[C@@H]1c1nc(Cc2ccncc2)c[nH]1 (single isomer, unassigned) [Example 33A]	< 1 µM	
ClC1(Cl)C[C@H]1c1nc(Cc2ccncc2)c[nH]1 (single isomer, unassigned) [Example 33B]	< 1 µM	
F[C@@]1(Cl)C[C@@H]1c1nc(Cc2ccncc2)c[nH]1 (single isomer, unassigned) [Example 39A]	< 1 µM	
F[C@]1(Cl)C[C@@H]1c1nc(Cc2ccncc2)c[nH]1 (single isomer, unassigned) [Example 39B]	< 1 µM	
F[C@@]1(Cl)C[C@H]1c1nc(Cc2ccncc2)c[nH]1 (single isomer, unassigned) [Example 39C]	< 1 µM	
F[C@]1(Cl)C[C@H]1c1nc(Cc2ccncc2)c[nH]1 (single isomer, unassigned) [Example 39D]	< 1 µM	
FC1(F)CCN(c2nc(Cc3ccncc3)c[nH]2)CC1 [Example 1]	1 to 10 µM	
FC1(F)CN(c2nc(Cc3ccncc3)c[nH]2)C1 [Example 2, 4-((2-(3,3-Difluoroazetidin-1-yl)-1H-imidazol-4-yl)methyl)pyridine]	1 to 10 µM	
FC1(F)CCN(c2nc(Cc3ccncc3)c[nH]2)C1 [Example 3]	1 to 10 µM	
Fc1cnccc1Cc1c[nH]c(C2CC(F)(F)C2)n1 [Example 4, 4-((2-(3,3-Difluorocyclobutyl)-1H-imidazol-4-yl)methyl)-3-fluoropyridine]	< 1 µM	

Structure (SMILES)	IC50	IC50 (read-out: Average IC50, 40 nM human SARM1(50-724), 0.3 mM NMN, 20 μM NAD, 60 min at room temperature, dose-response 1:3 serial dilution from 100 μM)
Fc1cnccc1Cc1coc(C2CC(F)(F)C2)n1 [Example 4A, 2-(3,3-Difluorocyclobutyl)-4-((3-fluoropyridin-4-yl)methyl)oxazole]	10 to 100 µM	
ClC1(Cl)CC1c1nc(Cc2ccncc2)c[nH]1 (stereo not drawn) [Example 6, 4-((2-(2,2-Dichlorocyclopropyl)-1H-imidazol-4-yl)methyl)pyridine]	< 1 µM	
FC1(F)CN(Cc2nc(Cc3ccncc3)c[nH]2)C1 [Example 7]	1 to 10 µM	
OC1(C(F)(F)F)CC(c2nc(Cc3ccncc3)c[nH]2)C1 (stereo not drawn) [Example 8, 3-(4-(Pyridin-4-ylmethyl)-1H-imidazol-2-yl)-1-(trifluoromethyl)cyclobutan-1-ol]	1 to 10 µM	
CC1(F)CC(c2nc(Cc3ccncc3)c[nH]2)C1 (stereo not drawn) [Example 9, 4-((2-(3-Fluoro-3-methylcyclobutyl)-1H-imidazol-4-yl)methyl)pyridine]	< 1 µM	
OC1(c2nc(Cc3ccncc3)c[nH]2)CCC(F)(F)CC1 [Example 12]	1 to 10 µM	
FC1(F)CCC(c2nc(Cc3ccncc3)c[nH]2)CC1 [Example 13, 4-((2-(4,4-Difluorocyclohexyl)-1H-imidazol-4-yl)methyl)pyridine]	1 to 10 µM	
Fc1cnccc1Cc1c[nH]c(C2CC2(F)F)n1 (stereo not drawn) [Example 14, 4-((2-(2,2-Difluorocyclopropyl)-1H-imidazol-4-yl)methyl)-3-fluoropyridine]	< 1 µM	
FC1(F)CC(c2nc(Cc3ccncc3)c[nH]2)C1 [Example 15A, 4-((2-(3,3-Difluorocyclobutyl)-1H-imidazol-4-yl)methyl)pyridine]	< 1 µM	
FC1(F)CC(c2nc(Cc3ccncc3)co2)C1 [Example 15B, 2-(3,3-Difluorocyclobutyl)-4-(pyridin-4-ylmethyl)oxazole]	10 to 100 µM	
FC(F)(F)C1(c2nc(Cc3ccncc3)c[nH]2)CC1 [Example 16]	1 to 10 µM	
Fc1cnccc1Cc1c[nH]c(C2CCC(F)(F)CC2)n1 [Example 17A, 4-((2-(4,4-Difluorocyclohexyl)-1H-imidazol-4-yl)methyl)-3-fluoropyridine]	1 to 10 µM	
Fc1cnccc1Cc1coc(C2CCC(F)(F)CC2)n1 [Example 17B, 2-(4,4-Difluorocyclohexyl)-4-((3-fluoropyridin-4-yl)methyl)oxazole]	10 to 100 µM	
Fc1cnccc1Cc1c[nH]c(C2CCC(F)(F)C2)n1 (stereo not drawn) [Example 18A, 4-((2-(3,3-Difluorocyclopentyl)-1H-imidazol-4-yl)methyl)-3-fluoropyridine]	1 to 10 µM	
Fc1cnccc1Cc1coc(C2CCC(F)(F)C2)n1 (stereo not drawn) [Example 18B, 2-(3,3-Difluorocyclopentyl)-4-((3-fluoropyridin-4-yl)methyl)oxazole]	10 to 100 µM	
ClC1(Cl)CC(c2nc(Cc3ccncc3)c[nH]2)C1 [Example 19A, 4-((2-(3,3-Dichlorocyclobutyl)-1H-imidazol-4-yl)methyl)pyridine]	< 1 µM	
ClC1(Cl)CC(c2nc(Cc3ccncc3)co2)C1 [Example 19B, 2-(3,3-Dichlorocyclobutyl)-4-(pyridine-4-ylmethyl)oxazole]	1 to 10 µM	
FC1(F)CC1Cc1nc(Cc2ccncc2)co1 (stereo not drawn) [Example 20B, 2-((2,2-Difluorocyclopropyl)methyl)-4-(pyridine-4ylmethyl)oxazole]	10 to 100 µM	
FC1(F)CC(Cc2nc(Cc3ccncc3)c[nH]2)C1 [Example 24, 4-((2-((3,3-Difluorocyclobutyl)methyl)-1H-imidazol-4-yl)methyl)pyridine]	1 to 10 µM	
FC(F)(F)C1(Cc2nc(Cc3ccncc3)c[nH]2)CC1 [Example 25]	< 1 µM	
FC(F)(F)C1CC1c1nc(Cc2ccncc2)c[nH]1 (stereo not drawn) [Example 26, 4-((2-(2-(Trifluoromethyl)cyclopropyl)-1H-imidazol-4-yl)methyl)pyridine]	1 to 10 µM	
FC(F)(F)Sc1ncc(Cc2ccncc2)[nH]1 [Example 28, 4-((2-((Trifluoromethyl)thio)-1H-imidazol-5-yl)methyl)pyridine]	< 1 µM	
F[C@H]1C[C@@H](c2nc(Cc3ccncc3)c[nH]2)C1 [Example 29, (cis)-4-((2-(3-Fluorocyclobutyl)-1H-imidazol-4-yl)methyl)pyridine]	< 1 µM	
F[C@H]1C[C@H](c2nc(Cc3ccncc3)c[nH]2)C1 [Example 30, (trans)-4-((2-(3-Fluorocyclobutyl)-1H-imidazol-4-yl)methyl)pyridine]	1 to 10 µM	
